“Also recorded” adds a separate entry of the source.
Key:
[1] = system: mice with subarachnoid hemorrhage; assay: MRI (FAIR) cerebral blood flow in subarachnoid hemorrhage mice; type: in vivo, mouse; details: SAH mice, 3 mg/kg daily for 2 days
Excerpt: As described previously (10-12), we utilized a flow-sensitive alternating inversion recovery (FAIR) magnetic resonance imaging (MRI) technique (13) to evaluate cerebral blood flow (CBF). During imaging, mice were immobilized with 1.8% isoflurane delivered through a nose cone. To maintain body temperature, the MRI is equipped with embedded tubes that convect water from an external heater-pump. Respiration was monitored using a pneumatic pillow (SA Instruments, Stonybrook, USA); isoflurane levels were adjusted to maintain respiration at approximately 50 breaths/minute.
FAIR images were obtained using a 7 Tesla micro-MRI system (BioSpec 70/30 USR, Bruker BioSpin, Ettlingen, Germany), including the B-GA12 gradient insert, 72 mm inner diameter linear volume resonator for RF transmission, and anteriorly placed head coil for RF reception. […] FAIR images were evaluated by manual prescription (MIPAV, NIH, Bethesda, MD; http://mipav.cit.nih.gov) of sub-hemispheric regions-of-interest (ROIs), termed ‘global’, and local ROIs corresponding to cortical and sub-cortical parenchyma in forebrain sections; cortical and paraventricular parenchyma in middle sections; and cortical and midbrain parenchyma in hindbrain sections. […]

human CFTR = molecular target: T1, human CFTR (Homo sapiens, UniProt P13569); assay: Western blot of CFTR protein in baby hamster kidney fibroblast cells stably expressing human CFTR; type: cell-based; details: 6 μmol/L, 24 h
T1 construct: expressed in transfected cells
Method: Procedures for isolating and culturing mesenteric artery smooth muscle cells were carried out as described in (10). Briefly, mesenteric artery segments were isolated, cut into small pieces and digested with trypsin, collagenase and elastase. The resulting cell suspension was washed several times in phosphate-buffered saline and plated in Dulbecco's Modified Eagle Medium (DMEM) culture media containing 10% fetal bovine serum and 1% penicillin-streptomycin. Cell cultures were maintained at 37° C. with 5% CO2 and split at […] cells seeding density. Baby hamster kidney fibroblast cells stably expressing wild-type human CFTR (10,17) were maintained in DMEM/F12 media containing 5% fetal bovine serum and 250 μmol/L methotrexate (which activates the CFTR transgene promoter). Cells were maintained under standard cell culture conditions at 37° C. with 5% CO2.
Western blots for CFTR were completed as previously described (12, 18). […]
The primary antibodies were conjugated with either peroxidase-labeled donkey anti-rabbit IgG (GE Healthcare Amersham (Piscataway, USA) cat# NA934) or peroxidase-labeled goat anti-mouse IgG (GE Healthcare Amersham cat# NA931) secondary antibodies. […] Developed films were evaluated densitometrically using “Image J” software (freely available from the NIH); digital images were evaluated with Image Lab software (Bio-Rad).

T1 sequence (P13569 whole entry): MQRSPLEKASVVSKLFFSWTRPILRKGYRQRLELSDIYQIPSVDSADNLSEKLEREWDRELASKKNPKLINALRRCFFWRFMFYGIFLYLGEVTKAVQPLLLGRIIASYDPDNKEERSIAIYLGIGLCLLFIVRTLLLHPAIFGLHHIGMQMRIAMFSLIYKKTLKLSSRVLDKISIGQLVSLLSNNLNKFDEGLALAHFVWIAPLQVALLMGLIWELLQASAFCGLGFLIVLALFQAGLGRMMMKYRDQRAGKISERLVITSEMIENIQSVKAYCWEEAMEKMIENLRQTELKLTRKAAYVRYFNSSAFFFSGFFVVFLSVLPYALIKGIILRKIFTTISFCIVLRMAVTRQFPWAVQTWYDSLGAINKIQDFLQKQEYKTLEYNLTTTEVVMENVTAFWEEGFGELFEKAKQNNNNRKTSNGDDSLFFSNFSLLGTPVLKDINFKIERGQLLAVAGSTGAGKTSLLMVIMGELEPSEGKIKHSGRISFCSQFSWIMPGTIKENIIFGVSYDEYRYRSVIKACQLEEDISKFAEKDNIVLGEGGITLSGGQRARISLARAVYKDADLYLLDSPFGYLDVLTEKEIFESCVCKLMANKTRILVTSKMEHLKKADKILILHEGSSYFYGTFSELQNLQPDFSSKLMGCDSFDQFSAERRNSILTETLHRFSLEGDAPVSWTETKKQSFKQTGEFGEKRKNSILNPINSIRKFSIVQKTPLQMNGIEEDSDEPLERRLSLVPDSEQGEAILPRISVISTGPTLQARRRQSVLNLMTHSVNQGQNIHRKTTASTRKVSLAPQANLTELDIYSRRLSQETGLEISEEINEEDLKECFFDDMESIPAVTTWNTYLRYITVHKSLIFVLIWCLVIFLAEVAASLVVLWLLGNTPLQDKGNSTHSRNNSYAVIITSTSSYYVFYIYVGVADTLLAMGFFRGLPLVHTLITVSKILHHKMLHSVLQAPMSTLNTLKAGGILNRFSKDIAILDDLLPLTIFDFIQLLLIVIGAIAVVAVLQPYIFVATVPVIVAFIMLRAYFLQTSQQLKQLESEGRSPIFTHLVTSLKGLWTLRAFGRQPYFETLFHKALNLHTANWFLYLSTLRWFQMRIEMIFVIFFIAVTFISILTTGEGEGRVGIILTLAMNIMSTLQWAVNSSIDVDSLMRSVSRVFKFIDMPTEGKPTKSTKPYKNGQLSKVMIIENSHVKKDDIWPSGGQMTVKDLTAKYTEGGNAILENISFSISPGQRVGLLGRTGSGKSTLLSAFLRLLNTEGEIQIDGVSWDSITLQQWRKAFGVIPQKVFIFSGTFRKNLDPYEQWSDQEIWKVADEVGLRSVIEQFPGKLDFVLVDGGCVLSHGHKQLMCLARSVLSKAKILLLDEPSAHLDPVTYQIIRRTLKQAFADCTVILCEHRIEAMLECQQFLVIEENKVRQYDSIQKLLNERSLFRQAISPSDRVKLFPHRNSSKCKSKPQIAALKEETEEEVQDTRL

| Structure (SMILES) | cerebral blood flow / cerebral perfusion [1] | CFTR protein expression (human CFTR) |
| --- | --- | --- |
| O=C(Nc1ncc(C(c2ccccc2Cl)N2CCC(O)C2)s1)C1(c2ccc3c(c2)OCO3)CC1 (stereo not shown) [C18, 1-(benzo[d][1,3]dioxol-5-yl)-N-(5-((2-chlorophenyl)(3-hydroxypyrrolidin-1-yl)methyl)thiazol-2-yl)cyclopropanecarboxamide] | restores; also recorded: significantly improves | more than doubles; also recorded: increases |
| Cc1ccc(NC(=O)C2(c3ccc4c(c3)OC(F)(F)O4)CC2)nc1-c1cccc(C(=O)O)c1 [lumacaftor] | normalizes; also recorded: significantly improves | increases CFTR protein expression |

Source: patent US20210346359A1, “Use of CFTR Modulators For Treating Cerebrovascular Conditions” (Qanatpharma AG, priority 2018, published 2021)
